Tests used:
Type in all cases: cell-based, human
[1] = test system: pDCs cocultured with naïve CD4+ T cells; test: Blocking experiments (IDO, PD-L1, IFN-α) on Treg cells generation by pDCs in coculture; details: added to the coculture; p=0.07
Source text: Additionally, it is claimed that IFN-α itself induces the generation of Treg cells.

[2] = test system: pDCs cocultured with naïve CD4+ T cells; test: Generation of Treg cells by pDCs: omalizumab in comparison to corticosteroids; details: 5 or 10 mg/mL of omalizumab for 24 hours before crosslinker and TLR9-L; coculture 5 days
Procedure: After 24 hours, the pDCs were washed and cocultured with naïve CD4+ T cells for 5 days.

[3] = test system: IgE bound to FcεR1 on pDCs; test: Removal of membrane-bound IgE from purified pDCs; details: pDCs from atopic donors, IL-3, 5, 10 and mg/mL of Oma, 24 hours
Sequence of IgE bound to FcεR1 on pDCs (P01854 1-428 isoform P01854-1): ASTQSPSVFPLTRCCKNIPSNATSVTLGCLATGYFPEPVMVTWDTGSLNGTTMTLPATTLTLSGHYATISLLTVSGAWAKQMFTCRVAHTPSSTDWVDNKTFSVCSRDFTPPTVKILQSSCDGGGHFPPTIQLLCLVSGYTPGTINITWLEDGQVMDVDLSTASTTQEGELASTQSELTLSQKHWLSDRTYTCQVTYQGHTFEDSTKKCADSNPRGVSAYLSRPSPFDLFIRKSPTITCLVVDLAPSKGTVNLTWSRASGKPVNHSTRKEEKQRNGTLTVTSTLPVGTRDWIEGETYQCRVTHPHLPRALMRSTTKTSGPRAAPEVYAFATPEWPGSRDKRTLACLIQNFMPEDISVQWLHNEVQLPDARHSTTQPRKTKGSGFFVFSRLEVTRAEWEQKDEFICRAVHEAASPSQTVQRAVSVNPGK
Procedure: (§1) A) Left: Frequency of FcεR1α-bound IgE+ cells gated in pDCs. Right: Frequency of cells with unoccupied FcεR1, gated in pDCs (n=4). B) Viability of pDCs after 24 hours incubation with Oma (n=2). Values are given as mean±SEM. **p<0.01, *p<0.05 in paired t-test comparing multiple conditions.

pDCs [4] = test: Cytokine signature of TLR9-L-activated pDCs under IgE-FcεR1-crosslinker (ELISA); details: omalizumab 10 mg/mL 24 hours prior to crosslinker and TLR9-L, ELISA 24 hours after activation, compared to crosslinker condition
Procedure: Then, the cytokine profile was analysed by ELISA 24 hours after activation.

pDCs [5] = test: Viability of pDCs after incubation with Oma; details: 24 hours incubation with Oma
Procedure: as §1

Compound | pDCs capacity to induce Treg cells under IgE-FcεR1-crosslinker condition [1] | crosslinker-induced decrease of the frequency of induced Treg cells [2] | IgE bound to FcεR1 on pDCs (IgE mean fluorescence intensity, MFI) [3] | frequency of pDCs with FcεR1-bound IgE (FcεR1+IgE+pDCs) [3] | levels of pDCs with unoccupied FcεR1 (FcεR1+IgE-pDCs) [3] | TNF-α levels (pDCs [4]; p=0.04) | pDCs capacity to produce IFN-α (pDCs [4]; p=0.05) | pDCs viability (pDCs [5])
Nc1ccccc1C(=O)CC(N)C(=O)O (centres unmarked) [kyn, kynurenine] | increased |  |  |  |  |  |  | 
Omalizumab: recombinant DNA-derived humanized monoclonal antibody that selectively binds to free, circulating human immunoglobulin E (IgE) |  | reverted by Omalizumab in a dose dependent manner | decrease in IgE mean fluorescence intensity (MFI) in a dose-dependent manner | significant reduction | increased levels | retained low TNF-α levels | restored pDCs capacity to produce IFN-α | did not affect pDCs viability
